Source: ChEMBL document CHEMBL4049445
pEC50: −log10 of the molar value.

Assays:
[1] = Antiviral activity against Influenza A virus A//HK/7/87 (H3N2) expressing wild-type M2 proton channel infected in MDCK cells assessed as reduction in plaque formation preincubated with virus for 1 hr followed by addition to cells measured after 72 hrs by crystal violet staining based assay; format: functional, cell-based, Influenza A virus (A/Hong Kong/7/1987(H3N2))
MDCK = assay: (§1) Cytotoxicity against MDCK cells assessed as reduction in cell viability after 72 hrs by MTS assay; format: cell-based, Canis lupus familiaris; settings: dog, mdck, 72 h
[2] = Antiviral activity against Influenza A virus A//HK/7/87 (H3N2) expressing wild-type M2 proton channel infected in MDCK cells assessed as reduction in viral yield after 24 hrs by RT-qPCR method; format: functional, Influenza A virus (A/Hong Kong/7/1987(H3N2))
[3] = Antiviral activity against Influenza A virus (A2 Japan/305/57) H2N2 infected in MDCK cells assessed as reduction of virus-induced cytopathic effect after 4 to 5 days by MTS assay; format: functional, cell-based, Influenza A virus (A/Japan/305/1957(H2N2))
[4] = molecular target: Matrix protein 2 (Influenza A virus (A/Udorn/307/1972(H3N2))) (UniProt P0DOF8); format: cell-based; settings: Influenza A virus (A/udorn/1972(H3N2)); 100 uM
Chain of Matrix protein 2 (Influenza A virus (A/Udorn/307/1972(H3N2))) (P0DOF8 whole entry): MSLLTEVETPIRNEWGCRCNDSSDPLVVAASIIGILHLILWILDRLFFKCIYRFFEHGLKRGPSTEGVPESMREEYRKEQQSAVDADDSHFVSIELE

[5] = molecular target: Matrix protein 2 (Influenza A virus (A/Udorn/307/1972(H3N2))) (UniProt P0DOF8); format: cell-based; settings: Influenza A virus (A/udorn/1972(H3N2)); 100 uM; remark: listed apart in the source
[6] = as §1; format: cell-based, Canis lupus familiaris; settings: dog, MDCK cells

Row | SMILES | pEC50 [1] | CC50 (MDCK) | EC99 [2] | pEC50 [3] | inhibition [4] | inhibition [5] | CC50 at 72 h [6]
1 | CC(N)C12CC3CC(CC(C3)C1)C2 (stereo not drawn) [RIMANTADINE] | 7.80 | > 500 µM | 1.1 µM |  |  |  | 
2 | C1CC(CC2C3CC4CC(C3)CC2C4)CCN1 (stereo not drawn) | < 5.00 | 15 µM | > 2 µM |  |  |  | 
3 | C1CCC(C23CC4CC(CC(C4)C2)C3)NC1 (stereo not drawn) | 6.00 | > 100 µM | 3.5 µM | 5.48 |  |  | 
4 | CCN1CCC(C2C3CC4CC(C3)CC2C4)CC1 (stereo not drawn) | < 5.00 | 25 µM | > 10 µM |  |  |  | 
5 | CN1CCC(CC2C3CC4CC(C3)CC2C4)CC1 (stereo not drawn) | < 5.00 | 6.2 µM | > 2 µM |  |  |  | 
6 | OC1(CC2CCNCC2)C2CC3CC(C2)CC1C3 (stereo not drawn) | 5.00 | > 50 µM | > 50 µM |  |  |  | 
7 | C1CC(C23CC4CC(CC(C4)C2)C3)CCN1 | 6.85 | 18 µM | ≥ 1.7 µM |  |  |  | 
8 | N=C(N)N1CCC(CC2C3CC4CC(C3)CC2C4)CC1 (stereo not drawn) | < 5.00 | 3.8 µM | > 2 µM |  |  |  | 
9 | OC1(C2CCNCC2)C2CC3CC(C2)CC1C3 (stereo not drawn) | < 4.00 | > 100 µM | 76 µM |  | 30% | 25% | 
10 | NC12CC3CC(CC(C3)C1)C2 [AMANTADINE] | 6.85 |  | 0.51 µM |  |  |  | 
11 | C(=C1C2CC3CC(C2)CC1C3)C1CCNCC1 | < 5.30 |  | > 10 µM |  |  |  | 25 µM
12 | N=C(N)N1CCC(C=C2C3CC4CC(C3)CC2C4)CC1 | < 5.30 |  | > 2 µM |  |  |  | 19 µM
13 | C1CC(C2C3CC4CC(C3)CC2C4)CCN1 (stereo not drawn) |  | > 100 µM | ≥ 50 µM |  |  |  | 
14 | N=C(N)N1CCC(C23CC4CC(CC(C4)C2)C3)CC1 | < 4.30 | 10 µM | > 2 µM |  |  |  | 
